Values joined by “and” are separate entries in the source; they are usually repeats but may differ in a detail not shown here. Equal values may be shown once.
System: murine macrophages (RAW 267.4 cell line) stimulated with LPS from E. coli
Test: In vitro anti-inflammatory test: inhibition of NO production in LPS-stimulated murine macrophages (Griess reaction)
Format: cell-based
Details: for Anti-inflammatory ratio: ratio between anti-inflammatory activity and toxicity (IC50 NO release and IC50 cell viability)
Source text: Low-grade inflammation is strongly implicated in degenerative processes in human skin such as photoaging and atopy. The reduction of low-intensity inflammatory reactions by topical products may be necessary in the event of cutaneous aggression, to obtain optimal healing and restore the physiological balance of human skin. In order to identify new anti-inflammatory candidates, an in vitro anti-inflammatory test was developed with a murine cell line: the murine macrophage test RAW 267.4. This test was used to monitor the inhibitory effects of chemical compounds or natural extracts on the low-intensity inflammatory cascade leading to overproduction of nitrogen oxide (NO) in the endothelial wall of blood vessels.
The study was carried out to evaluate the ability of cannabidiol, palmitoyl tripeptide-8 (active ingredient in Neutrazen™), and their mixture to inhibit the pro-inflammatory cascade leading to the production of NO in murine macrophages stimulated by liposaccharides (LPS).
The in vitro anti-inflammatory test is based on the ability of murine macrophages to generate a strong inflammatory response when stimulated by antigens such as LPS. Immobilized murine macrophages (RAW 267.4 cell line) are stimulated with LPS from E. coli and exposed for 24 hours. At the end of the incubation period, the production of NO is evaluated indirectly by measuring the accumulation of nitrite/nitrate, stable final products of the oxidation of NO, in the culture medium using a method spectrophotometric based on the Griess reaction.
MURINS RAW 267.4 Macrophage cell line (Sigma-Aldrich, No. P6110401, Lot. 091006), low number of passages (less than 50).
Complete medium: DMEM with stabilized L-glutamine (Dulbecco's Minimum Essential Medium, PAN BIOTECH. Lot 974251) supplemented with Penicillin 100 IU/ml and streptomycin 100 μg/m1 (PAN BIOTECH, Lot 225614), and 10% inactivated calf serum (PAN BIOTECH, Lot P460518), pH 7.2, freshly prepared, stored for less than 3 weeks.
Cannabidiol (CBD) is diluted in DMSO (10 mg/mL storage solution), and subjected to an ultrasonic bath for 20 minutes. The Neutrazen™ solution is diluted in PBS (Phosphate buffer saline, Sigma-Aldrich).
The negative control: DMSO 1% The positive control: Dexamethasone (Sigma-Aldrich) 1-5-10-50-100 μM.
RAW 267.4 murine macrophages were inoculated into 48-well tissue culture plates at a concentration of 1.10^5 cells/ml (200 μl/well) and incubated for 24 hours at 37° C. (5% CO2).
At the end of the incubation period, the culture medium was replaced with 200 μl of medium containing the appropriate concentrations of the material to be tested, and the cells were incubated at 37° C. (5% CO2) for one hour.
At the end of the incubation period, pro-inflammatory E. coli LPS was added to the cell cultures (1 μg/ml. Then the cells were incubated at 37° C. (5% CO2) for 24 hours.
The amount of NO released was measured in the culture supernatant by the Griess reaction. 100 μl of the supernatants were transferred into the wells of a 96-well tissue culture plate, and modified Griess reagent (SIGMA-ALDRICH) were added to each well. After a period of 15 min at room temperature, the Optical Density (OD) of each well was read at a wavelength of 540 nm by an Infinite M200 Pro fluorescence-luminescence reader (TECAN).
The concentrations of test material causing a 50% decrease in NO release (IC50 (NO release)) and a 50% decrease in cell viability (IC50 (cell viability)) respectively were calculated using TableCurve software Version 2.0.
The anti-inflammatory ratio corresponds to the ratio between anti-inflammatory activity and toxicity. It is expressed as follows: […]
Analysis of the anti-inflammatory activity and of the cell viability of the cannabidiol/palmitoyl tripeptide-8 (Neutrazen™) association in a mixture by isobologram analysis.

C=C(C)[C@@H]1CCC(C)=C[C@H]1c1c(O)cc(CCCCC)cc1O [CBD]
NO production (% as compared to the negative control) (CBD 0.01 weight % in mixture with NeutraZen 0.01%): 94.48% and 98.73% and 100.63% | NO production (% as compared to the negative control) (CBD 0.01 weight % in mixture with NeutraZen 0.025%): 98.77% and 101.91% and 100.00% | NO production (% as compared to the negative control) (CBD 0.01 weight % in mixture with NeutraZen 0.05%): 100.00% and 103.82% and 103.16% | NO production (% as compared to the negative control) (CBD 0.01 weight % in mixture with NeutraZen 0.1%): 101.23% and 103.82% and 98.10% | NO production (% as compared to the negative control) (CBD 0.025 weight % in mixture with NeutraZen 0.01%): 87.12% and 89.17% and 92.41% | NO production (% as compared to the negative control) (CBD 0.025 weight % in mixture with NeutraZen 0.025%): 92.64% and 96.18% and 96.84% | NO production (% as compared to the negative control) (CBD 0.025 weight % in mixture with NeutraZen 0.05%): 93.87% and 100.00% and 98.10% | NO production (% as compared to the negative control) (CBD 0.025 weight % in mixture with NeutraZen 0.1%): 103.07% and 101.27% and 100.63% | NO production (% as compared to the negative control) (CBD 0.05 weight % in mixture with NeutraZen 0.01%): 84.66% and 85.99% and 88.61% | NO production (% as compared to the negative control) (CBD 0.05 weight % in mixture with NeutraZen 0.025%): 84.66% and 87.90% and 87.34% | NO production (% as compared to the negative control) (CBD 0.05 weight % in mixture with NeutraZen 0.05%): 84.05% and 86.62% and 87.97% | NO production (% as compared to the negative control) (CBD 0.05 weight % in mixture with NeutraZen 0.1%): 79.75% and 84.71% and 82.28% | NO production (% as compared to the negative control) (CBD 0.1 weight % in mixture with NeutraZen 0.01%): 80.37% and 77.07% and 85.44% | NO production (% as compared to the negative control) (CBD 0.1 weight % in mixture with NeutraZen 0.025%): 79.75% and 80.89% and 82.28% | NO production (% as compared to the negative control) (CBD 0.1 weight % in mixture with NeutraZen 0.05%): 79.75% and 79.62% and 83.54% | NO production (% as compared to the negative control) (CBD 0.1 weight % in mixture with NeutraZen 0.1%): 72.39% and 74.52% and 74.68% | NO production (% as compared to the negative control) (CBD 0.25 weight % in mixture with NeutraZen 0.01%): 53.37% and 61.15% and 60.76% | NO production (% as compared to the negative control) (CBD 0.25 weight % in mixture with NeutraZen 0.025%): 47.24% and 49.04% and 51.90% | NO production (% as compared to the negative control) (CBD 0.25 weight % in mixture with NeutraZen 0.05%): 47.24% and 52.87% and 47.47% | NO production (% as compared to the negative control) (CBD 0.25 weight % in mixture with NeutraZen 0.1%): 50.92% and 43.95% and 50.00% | NO production (% as compared to the negative control) (CBD 0.5 weight % in mixture with NeutraZen 0.01%): 0% and 0.63% | NO production (% as compared to the negative control) (CBD 0.5 weight % in mixture with NeutraZen 0.025%): 0% | NO production (% as compared to the negative control) (CBD 0.5 weight % in mixture with NeutraZen 0.05%): 0% and 4.46% and 1.27% | NO production (% as compared to the negative control) (CBD 0.5 weight % in mixture with NeutraZen 0.1%): 0% and 1.27% | NO production (% as compared to the negative control) (CBD 1 weight % in mixture with NeutraZen 0.01%): 0% | NO production (% as compared to the negative control) (CBD 1 weight % in mixture with NeutraZen 0.025%): 0% | NO production (% as compared to the negative control) (CBD 1 weight % in mixture with NeutraZen 0.05%): 0% | NO production (% as compared to the negative control) (CBD 1 weight % in mixture with NeutraZen 0.1%): 0% | NO production (% as compared to the negative control) (CBD 2.5 weight % in mixture with NeutraZen 0.01%): 0% | NO production (% as compared to the negative control) (CBD 2.5 weight % in mixture with NeutraZen 0.025%): 0% | NO production (% as compared to the negative control) (CBD 2.5 weight % in mixture with NeutraZen 0.05%): 0% | NO production (% as compared to the negative control) (CBD 2.5 weight % in mixture with NeutraZen 0.1%): 0% | IC50-NO release (non-linear regression of 3 series of experiments, weight %, for mixtures CBD concentration at the fixed Neutrazen concentration): 0.319 ± 0.006% | Anti-inflammatory ratio: <1 | Anti-inflammatory ratio (listed as cannabidiol): less than 1 | NO production (% as compared to the negative control) (sample alone at 0.01 weight %): 99.39% and 100.64% and 102.53% | NO production (% as compared to the negative control) (sample alone at 0.025 weight %): 96.93% and 97.45% and 98.10% | NO production (% as compared to the negative control) (sample alone at 0.05 weight %): 97.55% and 89.17% and 93.04% | NO production (% as compared to the negative control) (sample alone at 0.1 weight %): 95.09% and 99.36% and 99.37% | NO production (% as compared to the negative control) (sample alone at 0.25 weight %): 77.91% and 80.25% and 81.65% | NO production (% as compared to the negative control) (sample alone at 0.5 weight %): 2.45% and 5.10% and 2.53% | NO production (% as compared to the negative control) (sample alone at 1 weight %): 0.61% and 1.91% and 1.90% | NO production (% as compared to the negative control) (sample alone at 2.5 weight %): 0.00% and 2.55% and 1.27%

Source: patent US20230255864A1, “NOVEL COMPOSITIONS COMBINING HEMP DERIVATIVES AND AT LEAST ONE PEPTIDE AND USE THEREOF” (FRANCE COSMEPHYL-LAB, priority 2020, published 2023)
